Laboratory results published in patent publication US20260201008A1, “SECRETIN-DERIVED GLP1R SELECTIVE AGONISTS” (GUBRA A/S, priority 2023, published 2026).
Read-outs that look alike come from different tables or passages of the source. Numbered stars: 1 amine (or outer) side, 2 acyl side, 3 side chain; on linkers, the order of the positions; unused ones are H or OH. Square brackets hold non-standard residues; d marks the D form. Side chains are listed from the residue outwards. Peptide text beside a SMILES is read from it. * marks the point of attachment. C20 diacid = O=C(O)CCCCCCCCCCCCCCCCCCC(=O)*; γGlu = O=C(O)[C@H](CCC(=O)[*:2])N[*:1]; AEEA = NCCOCCOCC(=O)O; Aib = CC(C)(N)C(=O)O

Legend:
[1] = Fibril formation of crude library peptides (Thioflavin T); format: physicochemical; set-up: key: average ThT fluorescence emission at 480 nm (ex 450 nm), raw units; conditions: Physical stability of peptides
Procedure, shortened: (§1)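 Values reflect mean ThT emission (ex 450, em 480 nm) over 72 h at 40° C, read every 10 min after 5 min shaking at 700 rpm, plus a single initial absorbance at 600 nm for turbidity. Peptides were at 267 μM, pH 4.0 acetate or pH 7.0 phosphate (50 mM), with 4 μM ThT.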

[2] = molecular target: SCTR (Homo sapiens, UniProt P47872); assay: hSCTR potency, cAMP accumulation in CHO-K1 cells stably overexpressing hSCTR; format: cell-based; set-up: alternatively Euroscreen ES-712-AF; FAST-0161L; host or cells: CHO-K1; conditions: cAMP accumulation
Procedure, shortened: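 Potency reflects cAMP accumulation after 30 min agonist exposure at room temperature in hSCTR-expressing CHO-K1 cells, with 0.5 mM IBMX present to block phosphodiesterase. EC50 was derived by nonlinear regression.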

[3] = Turbidity of crude library peptides (absorbance at 600 nm); format: physicochemical; conditions: Physical stability of peptides
Procedure, shortened: as §1

[4] = molecular target: GLP1R (Homo sapiens, UniProt P43220); assay: hGLP1R potency, cAMP accumulation in CHO-K1 cells stably overexpressing hGLP1R; format: cell-based; set-up: host or cells: CHO-K1; conditions: for EC50: cAMP accumulation; for SCTR EC50/GLP1R EC50 ratio: cAMP accumulation in CHO-K1 cells; for Selectivity: SCTR EC50/GLP1R EC50 ratio
Procedure, shortened: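 Potency reflects cAMP accumulation measured by time-resolved fluorescence energy transfer after a 30 min room-temperature stimulation in IBMX-containing (0.5 mM) DPBS with casein. Purified peptides were tested in duplicate over eleven threefold dilutions, and EC50 was obtained from sigmoid concentration-response fitting.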

[5] = CHO-K1 cells stably overexpressing hSCTR, read-out: hSCTR potency (pEC50) (converted)
[6] = CHO-K1 cells stably overexpressing hGLP1R, read-out: hGLP1R potency (pEC50) (converted)
[7] = selectivity ratio, hSCTR vs hGLP1R
[8] = CHO-K1 cells overexpressing hSCTR, read-out: pEC50 hSCTR (converted)
[9] = CHO-K1 cells overexpressing hGLP1R, read-out: pEC50 hGLPR1 (converted)

Sequence of SCTR (P47872 23-440): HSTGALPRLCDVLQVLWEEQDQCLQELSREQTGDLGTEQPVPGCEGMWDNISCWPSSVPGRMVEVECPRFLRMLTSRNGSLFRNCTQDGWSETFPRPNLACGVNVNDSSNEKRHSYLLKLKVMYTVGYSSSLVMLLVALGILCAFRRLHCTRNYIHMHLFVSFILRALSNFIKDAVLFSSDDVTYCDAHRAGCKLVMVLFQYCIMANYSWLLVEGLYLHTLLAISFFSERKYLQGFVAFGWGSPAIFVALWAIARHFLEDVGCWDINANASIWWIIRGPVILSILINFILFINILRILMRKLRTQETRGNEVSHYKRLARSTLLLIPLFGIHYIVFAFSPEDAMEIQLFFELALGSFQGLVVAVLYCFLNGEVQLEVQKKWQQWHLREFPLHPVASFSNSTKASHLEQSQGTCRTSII
Sequence of GLP1R (P43220 24-463): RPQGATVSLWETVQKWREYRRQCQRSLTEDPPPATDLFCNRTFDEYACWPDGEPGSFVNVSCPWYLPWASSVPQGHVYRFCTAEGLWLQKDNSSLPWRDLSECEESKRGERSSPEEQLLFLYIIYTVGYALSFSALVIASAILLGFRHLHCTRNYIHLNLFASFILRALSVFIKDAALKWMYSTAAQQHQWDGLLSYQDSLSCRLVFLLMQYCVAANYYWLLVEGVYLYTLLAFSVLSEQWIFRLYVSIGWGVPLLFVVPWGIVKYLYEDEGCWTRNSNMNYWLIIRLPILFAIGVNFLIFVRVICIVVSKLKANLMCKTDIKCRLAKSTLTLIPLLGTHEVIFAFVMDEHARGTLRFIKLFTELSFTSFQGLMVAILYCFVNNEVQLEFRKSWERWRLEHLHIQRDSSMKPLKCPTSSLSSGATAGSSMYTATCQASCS

| SMILES | Fibril formation [1] | EC50 ([2]; CHO-K1 cells overexpressing hSCTR, read-out: hSCTR pEC50 (converted)) [nM] | Turbidity (pH 7) [3] | EC50 ([4]; CHO-K1 cells overexpressing hGLP1R, read-out: hGLP1R pEC50 (converted)) [nM] | SCTR EC50/GLP1R EC50 ratio ([4]; selectivity for hGLP1R over hSCTR) | EC50 [2, 5] [nM] | EC50 [4, 6] [nM] | SCTR EC50/GLP1R EC50 ratio [4, 7] | EC50 [2, 8] [nM] | Selectivity [4] | EC50 [4, 9] [nM] |
| --- | --- | --- | --- | --- | --- | --- | --- | --- | --- | --- | --- |
| CC[C@H](C)[C@H](NC(=O)C(C)(C)NC(=O)[C@H](C)NC(=O)[C@H](CCC(=O)O)NC(=O)[C@H](CCC(=O)O)NC(=O)[C@H](CCCCNC(=O)COCCOCCNC(=O)COCCOCCNC(=O)CC[C@H](NC(=O)CCCCCCCCCCCCCCCCCCC(=O)O)C(=O)O)NC(=O)[C@H](CC(C)C)NC(=O)[C@H](Cc1ccc(O)cc1)NC(=O)[C@H](CO)NC(=O)[C@@H](NC(=O)[C@H](CC(=O)O)NC(=O)[C@H](CO)NC(=O)[C@@H](NC(=O)[C@H](Cc1ccccc1)NC(=O)[C@@H](NC(=O)CNC(=O)[C@H](CCC(=O)O)NC(=O)C(C)(C)NC(=O)[C@@H](N)Cc1c[nH]cn1)[C@@H](C)O)[C@@H](C)O)C(C)C)C(=O)N[C@@H](CCC(N)=O)C(=O)N[C@@H](CCCNC(=N)N)C(=O)N[C@@H](Cc1ccccc1)C(=O)N[C@@H](CC(C)C)C(=O)N[C@@H](CCC(=O)O)C(=O)N[C@@H](Cc1c[nH]cn1)C(=O)N[C@@H](CC(C)C)C(=O)N[C@H](C(N)=O)C(C)C [compound 139] (H-H[Aib]EGTFTSDVSYLK([AEEA-AEEA-γGlu-C20 diacid])EEA[Aib]IQRFLEHLV-NH2) | 4010 | 126 | 0.09 | 0.00631 | 21979 | – | – | – | – | – | – |
| CC(C)C[C@H](NC(=O)[C@H](Cc1ccccc1)NC(=O)[C@H](CCCNC(=N)N)NC(=O)[C@H](CCC(N)=O)NC(=O)C(C)(C)NC(=O)[C@H](C)NC(=O)[C@H](C)NC(=O)[C@H](CCC(=O)O)NC(=O)[C@H](CCC(=O)O)NC(=O)[C@H](CCCCNC(=O)COCCOCCNC(=O)COCCOCCNC(=O)CC[C@H](NC(=O)CCCCCCCCCCCCCCCCCCC(=O)O)C(=O)O)NC(=O)[C@H](CC(C)C)NC(=O)[C@H](CCCNC(=N)N)NC(=O)[C@H](CO)NC(=O)[C@@H](NC(=O)[C@H](CC(=O)O)NC(=O)[C@H](CO)NC(=O)[C@@H](NC(=O)[C@H](Cc1ccccc1)NC(=O)[C@@H](NC(=O)CNC(=O)[C@H](CCC(=O)O)NC(=O)C(C)(C)NC(=O)[C@@H](N)Cc1c[nH]cn1)[C@@H](C)O)[C@@H](C)O)C(C)C)C(=O)N[C@@H](CCC(=O)O)C(=O)N[C@@H](Cc1c[nH]cn1)C(=O)N[C@@H](CC(C)C)C(=O)N[C@H](C(N)=O)C(C)C [compound 1] (H-H[Aib]EGTFTSDVSRLK([AEEA-AEEA-γGlu-C20 diacid])EEAA[Aib]QRFLEHLV-NH2) | 11494 | – | 0.08 | – | – | – | – | – | 158 | 4325 | 0.0398 |
| CC(C)C[C@H](NC(=O)[C@H](Cc1ccccc1)NC(=O)[C@H](CCCNC(=N)N)NC(=O)[C@H](CCC(N)=O)NC(=O)[C@@H](NC(=O)[C@H](C)NC(=O)[C@H](C)NC(=O)C(C)(C)NC(=O)[C@H](CCC(=O)O)NC(=O)[C@H](CCCCNC(=O)COCCOCCNC(=O)COCCOCCNC(=O)CC[C@H](NC(=O)CCCCCCCCCCCCCCCCCCC(=O)O)C(=O)O)NC(=O)[C@H](CC(C)C)NC(=O)[C@H](CCC(=O)O)NC(=O)[C@H](CO)NC(=O)[C@@H](NC(=O)[C@H](CC(=O)O)NC(=O)[C@H](CO)NC(=O)[C@@H](NC(=O)[C@H](Cc1ccccc1)NC(=O)[C@@H](NC(=O)CNC(=O)[C@H](CCC(=O)O)NC(=O)C(C)(C)NC(=O)[C@@H](N)Cc1c[nH]cn1)[C@@H](C)O)[C@@H](C)O)C(C)C)[C@@H](C)O)C(=O)N[C@@H](CCC(=O)O)C(=O)N[C@@H](Cc1c[nH]cn1)C(=O)N[C@@H](CC(C)C)C(=O)N[C@H](C(N)=O)C(C)C [compound 82] (H-H[Aib]EGTFTSDVSELK([AEEA-AEEA-γGlu-C20 diacid])E[Aib]AATQRFLEHLV-NH2) | 8549 | – | 0.08 | – | – | – | – | – | 100 | 11264 | 0.01 |
| CC(C)C[C@H](NC(=O)[C@H](CCC(=O)O)NC(=O)[C@H](CCCCNC(=O)COCCOCCNC(=O)COCCOCCNC(=O)CC[C@H](NC(=O)CCCCCCCCCCCCCCCCCCC(=O)O)C(=O)O)NC(=O)[C@H](CC(C)C)NC(=O)[C@H](CCC(=O)O)NC(=O)[C@H](CO)NC(=O)[C@@H](NC(=O)[C@H](CC(=O)O)NC(=O)[C@H](CO)NC(=O)[C@@H](NC(=O)[C@H](Cc1ccccc1)NC(=O)[C@@H](NC(=O)CNC(=O)[C@H](CCC(=O)O)NC(=O)C(C)(C)NC(=O)[C@@H](N)Cc1c[nH]cn1)[C@@H](C)O)[C@@H](C)O)C(C)C)C(=O)N[C@@H](C)C(=O)N[C@@H](C)C(=O)N[C@H](C(=O)N[C@@H](CCC(N)=O)C(=O)N[C@@H](CCCNC(=N)N)C(=O)N[C@@H](Cc1ccccc1)C(=O)N[C@@H](CC(C)C)C(=O)N[C@@H](CCC(=O)O)C(=O)N[C@@H](Cc1c[nH]cn1)C(=O)N[C@@H](CC(C)C)C(=O)N[C@H](C(N)=O)C(C)C)[C@@H](C)O [compound 80] (H-H[Aib]EGTFTSDVSELK([AEEA-AEEA-γGlu-C20 diacid])ELAATQRFLEHLV-NH2) | 6999 | – | 0.08 | – | – | – | – | – | 794 | 33512 | 0.02 |

The remaining lines, values ahead:

| Fibril formation [1] | EC50 ([2]; CHO-K1 cells overexpressing hSCTR, read-out: hSCTR pEC50 (converted)) [nM] | Turbidity (pH 7) [3] | EC50 ([4]; CHO-K1 cells overexpressing hGLP1R, read-out: hGLP1R pEC50 (converted)) [nM] | SCTR EC50/GLP1R EC50 ratio ([4]; selectivity for hGLP1R over hSCTR) | EC50 [2, 5] [nM] | EC50 [4, 6] [nM] | SCTR EC50/GLP1R EC50 ratio [4, 7] | EC50 [2, 8] [nM] | Selectivity [4] | EC50 [4, 9] [nM] | SMILES |
| --- | --- | --- | --- | --- | --- | --- | --- | --- | --- | --- | --- |
| 4198 | – | 0.08 | – | – | 50.1 | 0.00631 | 7444 | – | – | – | CC(C)C[C@H](NC(=O)[C@H](Cc1ccc(O)cc1)NC(=O)[C@H](CO)NC(=O)[C@H](Cc1c[nH]c2ccccc12)NC(=O)[C@H](CC(=O)O)NC(=O)[C@H](CO)NC(=O)[C@@H](NC(=O)[C@H](Cc1ccccc1)NC(=O)[C@@H](NC(=O)CNC(=O)[C@H](CCC(=O)O)NC(=O)C(C)(C)NC(=O)[C@@H](N)Cc1c[nH]cn1)[C@@H](C)O)[C@@H](C)O)C(=O)N[C@@H](CCCCNC(=O)COCCOCCNC(=O)COCCOCCNC(=O)CC[C@H](NC(=O)CCCCCCCCCCCCCCCCCCC(=O)O)C(=O)O)C(=O)N[C@@H](CCC(=O)O)C(=O)N[C@@H](CCC(=O)O)C(=O)N[C@@H](C)C(=O)NC(C)(C)C(=O)N[C@@H](CC(C)C)C(=O)N[C@@H](CCC(N)=O)C(=O)N[C@@H](CCCNC(=N)N)C(=O)N[C@@H](Cc1ccccc1)C(=O)N[C@@H](CC(C)C)C(=O)N[C@@H](CCC(=O)O)C(=O)N[C@@H](Cc1c[nH]cn1)C(=O)N[C@@H](CC(C)C)C(=O)N[C@H](C(N)=O)C(C)C [compound 185] (H-H[Aib]EGTFTSDWSYLK([AEEA-AEEA-γGlu-C20 diacid])EEA[Aib]LQRFLEHLV-NH2) |
| 30208 | – | 0.30 | – | – | 12.6 | 0.0126 | 940 | – | – | – | CC[C@H](C)[C@H](NC(=O)[C@H](Cc1ccccc1)NC(=O)[C@H](CCCNC(=N)N)NC(=O)[C@H](CCC(N)=O)NC(=O)[C@H](CC(C)C)NC(=O)[C@H](C)NC(=O)[C@H](C)NC(=O)CNC(=O)[C@H](CCC(=O)O)NC(=O)[C@H](CC(C)C)NC(=O)[C@H](CC(C)C)NC(=O)[C@H](Cc1ccc(O)cc1)NC(=O)[C@H](CO)NC(=O)[C@H](Cc1ccc(O)cc1)NC(=O)[C@H](CC(=O)O)NC(=O)[C@H](CO)NC(=O)[C@@H](NC(=O)[C@H](Cc1ccccc1)NC(=O)[C@@H](NC(=O)CNC(=O)[C@H](CCC(=O)O)NC(=O)C(C)(C)NC(=O)[C@@H](N)Cc1c[nH]cn1)[C@@H](C)O)[C@@H](C)O)C(=O)N[C@@H](CCC(N)=O)C(=O)N[C@@H](Cc1c[nH]c2ccccc12)C(=O)N[C@@H](CC(C)C)C(=O)N[C@H](C(N)=O)C(C)C [compound 201] (H-H[Aib]EGTFTSDYSYLLEGAALQRFIQWLV-NH2) |
